Where two headings read alike, the source gives them in different places. Each block holds one compound with its values, some of them ahead of it.
Legend:
CYP1A1 = details: cited from earlier work
rCYP1A2 = system: rCYP1A2; design: method as in PMID 27633141; details: rCYP1A2, melatonin probe substrate; read-out: IC50 against rCYP1A2; cited from earlier work
CYP1A2 [1] = molecular target: T1, CYP1A2 (Homo sapiens, UniProt P05177); experiment: CYP1A2-mediated phenacetin O-deethylase (POD) activity in pooled human liver microsomes
T1 sequence (P05177 1-516): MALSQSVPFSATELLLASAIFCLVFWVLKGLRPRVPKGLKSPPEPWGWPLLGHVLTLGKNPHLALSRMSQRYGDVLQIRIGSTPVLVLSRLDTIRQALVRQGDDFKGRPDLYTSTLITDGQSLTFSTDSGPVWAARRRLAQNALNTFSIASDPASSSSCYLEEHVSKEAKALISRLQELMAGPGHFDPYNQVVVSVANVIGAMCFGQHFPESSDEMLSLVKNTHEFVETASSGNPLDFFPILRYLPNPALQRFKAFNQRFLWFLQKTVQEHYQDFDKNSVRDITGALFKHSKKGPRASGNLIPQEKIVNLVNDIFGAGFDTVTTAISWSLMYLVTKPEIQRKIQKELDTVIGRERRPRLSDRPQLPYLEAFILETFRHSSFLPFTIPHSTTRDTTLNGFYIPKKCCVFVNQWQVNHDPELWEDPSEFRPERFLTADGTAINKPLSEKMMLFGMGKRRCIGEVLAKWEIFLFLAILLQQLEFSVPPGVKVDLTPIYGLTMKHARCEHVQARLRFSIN
Method: The inhibitory potential of five major bioactive compounds from Cassiae semen against CYP1A2-mediated phenacetin O-deethylase (POD) activity was evaluated using previously developed methods with minor modifications. Briefly, the compounds were dissolved in methanol. The incubation mixtures containing pHLMs (0.25 mg/mL), phenacetin (100 µM), and inhibitor (0, 0.5, 2, 5, 20, or 50 µM) were pre-incubated at 37 °C for 5 min. An NADPH-generating system (NGS, 1.3 mM β-NADP^+, 3.3 mM G6P, 1.0 U/mL G6PDH, and 3.3 mM magnesium chloride) was introduced after pre-incubation to initiate the reaction, and further incubated for 15 min. The reaction was quenched by the addition of 50 µL ice-cold acetonitrile containing internal standard (IS; 7nM trimipramine). Aliquots of supernatants were analyzed by liquid chromatography–tandem mass spectrometry (LC-MS/MS, LCMS 8060 system, Shimadzu, Kyoto, Japan). All microsomal incubations were repeated three times.
The inhibitory potential of obtusifolin against the biotransformation of eight P450 probe substrates was examined using previously reported methods with slight changes. The following P450 isoform-specific substrates were used: coumarin (CYP2A6); bupropion (CYP2B6); amodiaquine (CYP2C8); tolbutamide (CYP2C9); omeprazole (CYP2C19); dextromethorphan (CYP2D6); chlorzoxazone (CYP2E1); and midazolam (CYP3A). Mixtures of pooled HLM, P450 substrates, and obtusifolin (0, 0.05, 0.2, 0.5, 2, 5, or 10 µM for CYP1A2; and 0, 0.5, 2, 5, 20, or 50 µM for the other P450 isoforms) were pre-incubated (5 min, 37 °C). NGS was introduced to start the reaction, which was followed by an additional incubation (15 min). Following reaction termination, aliquots of the supernatants were analyzed with LC-MS/MS.
Reverse phase column (Kinetex XB-C18, 100 × 2.10 mm; Phenomenex, Torrance, CA, USA) and triple-quadrupole mass spectrometer (LCMS 8060, Shimadzu, Kyoto, Japan) with an ultra high-performance LC system (Nexera X2, Shimadzu) analyze all the metabolites. Mobile phases were 0.1% formic acid in water (A) and 0.1% formic acid in acetonitrile (B). The elution condition was as follows: 0–0.5 min (B: 8%), 0.5–5 min (B: 8%→60%), 5–6 min (B: 60%), 6–6.1 min (B: 60%→8%), and 6.1–10 min (B: 8%) for the analysis of metabolites of the nine P450 substrates; and 0–1 min (B: 5%), 1–5 min (B: 5%→90%), and 5.1–7 min (B: 90%→5%) for the analysis of resorufin. Electrospray ionization was performed in the positive- and negative-ion modes at 4.0 and −3.5 kV, respectively. For each metabolite, quantitation was carried out in selected reaction monitoring (SRM) mode using the following precursor-to-product ion transition: m/z 152 > 110 for acetaminophen (CYP1A2), m/z 214 > 186 for resorufin (CYP1A1 and CYP1A2), m/z 163 > 107 for 7-hydroxycoumarin (CYP2A6), m/z 256 > 238 for 6-hydroxybupropion (CYP2B6), m/z 328 > 283 for N-desethylamodiaquine (CYP2C8), m/z 287 > 89 for 5-hydroxytolbutamide (CYP2C9), m/z 362 > 214 for 4-hydroxyomeprazole ([…]), m/z 258 > 157 for dextrorphan (CYP2D6), m/z 184 > 120 for 6-hydroxychlorzoxazone (CYP2E1), m/z 342 > 203 for 1′-hydroxymidazolam (CYP3A), and m/z 295 > 100 for trimipramine (IS).
WinNonlin software (Pharsight, Mountain View, CA, USA) was used to calculate IC50 values. Based on Lineweaver–Burk double reciprocal plots, secondary plots of Lineweaver–Burk plots versus obtusifolin concentrations, and visual inspection of Dixon plots, the type of inhibition and apparent kinetic parameters for inhibitory activity (Ki) were estimated.

CYP1A1 and CYP1A2 = details: cited from earlier work
CYP1A2 [2] = molecular target: T1, CYP1A2; details: cited from earlier work
[3] = system: CYP2C9, CYP2C19, CYP2D6, and CYP3A; details: cited from earlier work
CYP1A2 [4] = details: cited from earlier work
[5] = design: method as in PMID 21945452; details: humans, cited from earlier work
CYP1A2 [6] = system: CYP1A2; design: method as in PMID 18814214; details: rat liver microsomes; read-out: Ki, CYP1A2-catalyzed POD activity; cited from earlier work
[7] = read-out: IC50, CYP1A2-mediated POD, HLMs
[8] = read-out: IC50, CYP2C9, CYP2C19, CYP2D6, and CYP3A (other P450 isoforms), HLMs

SMILES: O=c1cc(-c2ccccc2)oc2cc(O)ccc12 [7-hydroxyflavone]
Selectivity for CYP1A1 inhibition over CYP1A2 (CYP1A1): six-fold

IC50 (CYP1A2 [1]): 1990 ± 230 nM
SMILES: Cc1cc(O)c2c(c1)C(=O)c1cccc(O)c1C2=O [Chrysophanol, chrysophanol]
IC50 (rCYP1A2): 290 nM

IC50 (CYP1A2 [1]): 790 ± 260 nM
SMILES: Cc1cc(O)c2c(c1)C(=O)c1cc(O)cc(O)c1C2=O [Emodin, emodin]
IC50 (CYP1A1 and CYP1A2): < 500 nM
IC50 (CYP1A2 [2]; microsomes): 500 nM
IC50 ([3]; microsomes): > 9600 nM

IC50 (CYP1A2 [1]): 2160 ± 480 nM
SMILES: COc1cc(O)c2c(c1)C(=O)c1cc(C)cc(O)c1C2=O [Physcion, physcion]
IC50 (rCYP1A2): 880 nM

SMILES: COc1cc(O)c2c(O)c3c(=O)cc(C)oc3cc2c1 [Rubrofusarin, rubrofusarin]
IC50 (CYP1A2 [1]): 6330 ± 1380 nM

SMILES: C[C@H]1COc2c(N3CCN(C)CC3)c(F)c(N)c3c(=O)c(C(=O)O)cn1c23 [antofloxacin]
Time dependence of CYP1A2 inhibition (CYP1A2 [4]): time-dependent inhibitors

SMILES: COc1cc(/C=C/C(=O)CC(=O)/C=C/c2ccc(O)c(OC)c2)ccc1O [curcumin]
IC50 (CYP1A1): 740 nM

SMILES: COc1c2ccoc2c(OC)c2oc(=O)ccc12 [isopimpinellin]
IC50 (CYP1A2 [4]): 460 nM
Ki (CYP1A2 [4]): 1200 nM
Time dependence of CYP1A2 inhibition (CYP1A2 [4]): time-dependent inhibitors

SMILES: C[C@H](Cc1ccc2c(c1)OCO2)[C@@H](C)Cc1ccc2c(c1)OCO2 [machilin A]
Ki (CYP1A2 [4]; read-out: Ki, CYP1A2): 710 nM

SMILES: COC(=O)c1c2c(c3ccccc3c1O)OC(C)(C)C=C2 [mollugin]
IC50 for CYP1A2-mediated POD in rCYP1A2 relative to HLMs (CYP1A2 [4]): five-fold higher
Ki (CYP1A2 [4]): 3740 nM
Selectivity for CYP1A2 inhibition (CYP1A2 [4]): 25 fold

SMILES: O=C1c2ccccc2C(=O)c2c(O)c(O)cc(O)c21 [purpurin]
IC50 (CYP1A2 [2]; [7]): 2300 nM
IC50 [3, 8]: > 9600 nM

SMILES: Oc1ccc(/C=C/c2cc(O)cc(O)c2)cc1 [resveratrol]
IC50 (CYP1A1): 23000 nM
Selectivity for CYP1A1 inhibition over CYP1A2 (CYP1A1): 51 fold

SMILES: O=C(O)c1cc(O)c2c(c1)C(=O)c1cccc(O)c1C2=O [rhein]
Maximum plasma concentration ([5]; oral dose 50 mg): 9.52 µM
Maximum plasma concentration ([5]; oral dose 100 mg): 18.8 µM
Ki (CYP1A2 [6]): 62000 nM

SMILES: Cc1c(O)cc2c(c1O)C(=O)c1ccccc1C2=O [rubiadin]
IC50 (CYP1A2 [2]; [7]): 1300 nM
IC50 [3, 8]: > 9600 nM

SMILES: Cc1cc2cc3c(C)cc(=O)oc3c(C)c2o1 [trioxsalen]
IC50 (CYP1A2 [4]; read-out: IC50, CYP1A2): 790 nM

SMILES: O=c1cc(-c2ccccc2)oc2c1ccc1ccccc12 [α-Naphthoflavone, α-naphthoflavone]
IC50 (CYP1A1 and CYP1A2; read-out: IC50 values, CYP1A1 and CYP1A2 activities): < 500 nM
IC50 (CYP1A1): 60 nM
